Laboratory results from patent US20070049564A1 (Wyeth, priority 2005, published 2007).
In brackets after ≈: the same amount, converted by molar mass. Read-outs that look alike come from different tables or passages of the source.

What was measured:
E. coli GC 2231 = assay: MIC, broth microdilution; settings: Escherichia coli
E. coli GC 4560 = assay: MIC, broth microdilution; settings: Escherichia coli
E. coli GC 2235 = assay: MIC, broth microdilution; settings: Escherichia coli
E. coli GC 2203 = assay: MIC, broth microdilution; settings: Escherichia coli
E. coli GC 3226 = assay: MIC, broth microdilution; settings: Escherichia coli
S. typhimurium GC 2172 = assay: MIC, broth microdilution; settings: Salmonella enterica, TYPHIMURIUM
S. aureus GC 6335 = assay: MIC, broth microdilution; settings: Staphylococcus aureus
E. faecalis GC 2242 = assay: MIC, broth microdilution; settings: Enterococcus faecalis
S. pneumoniae* GC 4465 = assay: MIC, broth microdilution; settings: Streptococcus pneumoniae
P. aeruginosa GC 2214 = assay: MIC, broth microdilution; settings: Pseudomonas aeruginosa
S. aureus GC 2216 = assay: MIC, broth microdilution; settings: Staphylococcus aureus
E. coli GC 4559 = assay: MIC, broth microdilution; settings: Escherichia coli
E. faecalis GC 2267 = assay: MIC, broth microdilution; settings: Enterococcus faecalis
E. coli GC 2270 = assay: MIC, broth microdilution; settings: Escherichia coli
Staph. aureus Smith = assay: In vivo activity (oral, iv; ED50) against Staph. aureus Smith in mice
S. agalactiae GC 4564 = assay: MIC, broth microdilution; settings: Streptococcus agalactiae
E. faecium GC 4556 = assay: MIC, broth microdilution; settings: Enterococcus faecium
E. coli GC 2271 = assay: MIC, broth microdilution; settings: Escherichia coli
E. coli GC 2232 = assay: MIC, broth microdilution; settings: Escherichia coli
S. aureus GC 6467 = assay: MIC, broth microdilution; settings: Staphylococcus aureus
[1] = read-out: MINIMAL INHIBITORY CONCENTRATION MIC, pre-incubated in Human Serum
[2] = read-out: MINIMAL INHIBITORY CONCENTRATION MIC, pre-incubated in Mouse Serum
[3] = read-out: MINIMAL INHIBITORY CONCENTRATION MIC, pre-incubated in Water

MIC (E. coli GC 2231; GC2231, read-out: MINIMAL INHIBITORY CONCENTRATION MIC, pre-incubated in Human Serum): > 64 µg/mL
MIC (E. coli GC 2231; GC2231, read-out: MINIMAL INHIBITORY CONCENTRATION MIC, pre-incubated in Mouse Serum): 2 µg/mL (≈ 2.64 µM)
MIC (E. coli GC 2231; GC2231, read-out: MINIMAL INHIBITORY CONCENTRATION MIC, pre-incubated in Water): > 64 µg/mL
MIC (E. coli GC 4560; GC4560, read-out: MINIMAL INHIBITORY CONCENTRATION MIC, pre-incubated in Human Serum): 4 µg/mL (≈ 5.28 µM)
MIC (E. coli GC 4560; GC4560, read-out: MINIMAL INHIBITORY CONCENTRATION MIC, pre-incubated in Mouse Serum): 2 µg/mL (≈ 2.64 µM)
MIC (E. coli GC 4560; GC4560, read-out: MINIMAL INHIBITORY CONCENTRATION MIC, pre-incubated in Water): 4 µg/mL (≈ 5.28 µM)
MIC (E. coli GC 2235; GC2235, read-out: MINIMAL INHIBITORY CONCENTRATION MIC, pre-incubated in Human Serum): > 64 µg/mL
MIC (E. coli GC 2235; GC2235, read-out: MINIMAL INHIBITORY CONCENTRATION MIC, pre-incubated in Mouse Serum): 2 µg/mL (≈ 2.64 µM)
MIC (E. coli GC 2235; GC2235, read-out: MINIMAL INHIBITORY CONCENTRATION MIC, pre-incubated in Water): > 64 µg/mL
MIC (E. coli GC 2203; GC2203, read-out: MINIMAL INHIBITORY CONCENTRATION MIC, pre-incubated in Human Serum): > 64 µg/mL
MIC (E. coli GC 2203; GC2203, read-out: MINIMAL INHIBITORY CONCENTRATION MIC, pre-incubated in Mouse Serum): 2 µg/mL (≈ 2.64 µM)
MIC (E. coli GC 2203; GC2203, read-out: MINIMAL INHIBITORY CONCENTRATION MIC, pre-incubated in Water): > 64 µg/mL
MIC (E. coli GC 3226; GC3226, read-out: MINIMAL INHIBITORY CONCENTRATION MIC, pre-incubated in Human Serum): > 64 µg/mL
MIC (E. coli GC 3226; GC3226, read-out: MINIMAL INHIBITORY CONCENTRATION MIC, pre-incubated in Mouse Serum): 4 µg/mL (≈ 5.28 µM)
MIC (E. coli GC 3226; GC3226, read-out: MINIMAL INHIBITORY CONCENTRATION MIC, pre-incubated in Water): > 64 µg/mL
MIC (S. typhimurium GC 2172; [1]): > 64 µg/mL
MIC (S. typhimurium GC 2172; [2]): 8 µg/mL (≈ 10.6 µM)
MIC (S. typhimurium GC 2172; [3]): > 64 µg/mL
MIC (S. aureus GC 6335; GC6335, read-out: MINIMAL INHIBITORY CONCENTRATION MIC, pre-incubated in Human Serum): 4 µg/mL (≈ 5.28 µM)
MIC (S. aureus GC 6335; GC6335, read-out: MINIMAL INHIBITORY CONCENTRATION MIC, pre-incubated in Mouse Serum): 2 µg/mL (≈ 2.64 µM)
MIC (S. aureus GC 6335; GC6335, read-out: MINIMAL INHIBITORY CONCENTRATION MIC, pre-incubated in Water): 4 µg/mL (≈ 5.28 µM)
MIC (E. faecalis GC 2242; GC2242, read-out: MINIMAL INHIBITORY CONCENTRATION MIC, pre-incubated in Human Serum): 4 µg/mL (≈ 5.28 µM)
MIC (E. faecalis GC 2242; GC2242, read-out: MINIMAL INHIBITORY CONCENTRATION MIC, pre-incubated in Mouse Serum): 2 µg/mL (≈ 2.64 µM)
MIC (E. faecalis GC 2242; GC2242, read-out: MINIMAL INHIBITORY CONCENTRATION MIC, pre-incubated in Water): 4 µg/mL (≈ 5.28 µM)
MIC (S. pneumoniae* GC 4465; [1]): 2 µg/mL (≈ 2.64 µM)
MIC (S. pneumoniae* GC 4465; [2]): 1 µg/mL (≈ 1.32 µM)
MIC (S. pneumoniae* GC 4465; [3]): 2 µg/mL (≈ 2.64 µM)
MIC (P. aeruginosa GC 2214; GC2214, read-out: MINIMAL INHIBITORY CONCENTRATION MIC, pre-incubated in Human Serum): > 64 µg/mL
MIC (P. aeruginosa GC 2214; GC2214, read-out: MINIMAL INHIBITORY CONCENTRATION MIC, pre-incubated in Mouse Serum): > 64 µg/mL
MIC (P. aeruginosa GC 2214; GC2214, read-out: MINIMAL INHIBITORY CONCENTRATION MIC, pre-incubated in Water): > 64 µg/mL
MIC (S. aureus GC 2216; GC2216, read-out: MINIMAL INHIBITORY CONCENTRATION MIC, pre-incubated in Human Serum): 2 µg/mL (≈ 2.64 µM)
MIC (S. aureus GC 2216; GC2216, read-out: MINIMAL INHIBITORY CONCENTRATION MIC, pre-incubated in Mouse Serum): 2 µg/mL (≈ 2.64 µM)
MIC (S. aureus GC 2216; GC2216, read-out: MINIMAL INHIBITORY CONCENTRATION MIC, pre-incubated in Water): 2 µg/mL (≈ 2.64 µM)
MIC (E. coli GC 4559; GC4559, read-out: MINIMAL INHIBITORY CONCENTRATION MIC, pre-incubated in Human Serum): > 64 µg/mL
MIC (E. coli GC 4559; GC4559, read-out: MINIMAL INHIBITORY CONCENTRATION MIC, pre-incubated in Mouse Serum): 4 µg/mL (≈ 5.28 µM)
MIC (E. coli GC 4559; GC4559, read-out: MINIMAL INHIBITORY CONCENTRATION MIC, pre-incubated in Water): > 64 µg/mL
MIC (E. faecalis GC 2267; GC2267, read-out: MINIMAL INHIBITORY CONCENTRATION MIC, pre-incubated in Human Serum): 4 µg/mL (≈ 5.28 µM)
MIC (E. faecalis GC 2267; GC2267, read-out: MINIMAL INHIBITORY CONCENTRATION MIC, pre-incubated in Mouse Serum): 2 µg/mL (≈ 2.64 µM)
MIC (E. faecalis GC 2267; GC2267, read-out: MINIMAL INHIBITORY CONCENTRATION MIC, pre-incubated in Water): 4 µg/mL (≈ 5.28 µM)
MIC (E. coli GC 2270; GC2270, read-out: MINIMAL INHIBITORY CONCENTRATION MIC, pre-incubated in Human Serum): > 64 µg/mL
MIC (E. coli GC 2270; GC2270, read-out: MINIMAL INHIBITORY CONCENTRATION MIC, pre-incubated in Mouse Serum): 2 µg/mL (≈ 2.64 µM)
MIC (E. coli GC 2270; GC2270, read-out: MINIMAL INHIBITORY CONCENTRATION MIC, pre-incubated in Water): > 64 µg/mL
MIC (S. agalactiae GC 4564; GC4564, read-out: MINIMAL INHIBITORY CONCENTRATION MIC, pre-incubated in Human Serum): 4 µg/mL (≈ 5.28 µM)
MIC (S. agalactiae GC 4564; GC4564, read-out: MINIMAL INHIBITORY CONCENTRATION MIC, pre-incubated in Mouse Serum): 1 µg/mL (≈ 1.32 µM)
MIC (S. agalactiae GC 4564; GC4564, read-out: MINIMAL INHIBITORY CONCENTRATION MIC, pre-incubated in Water): 4 µg/mL (≈ 5.28 µM)
MIC (E. faecium GC 4556; GC4556, read-out: MINIMAL INHIBITORY CONCENTRATION MIC, pre-incubated in Human Serum): 4 µg/mL (≈ 5.28 µM)
MIC (E. faecium GC 4556; GC4556, read-out: MINIMAL INHIBITORY CONCENTRATION MIC, pre-incubated in Mouse Serum): 2 µg/mL (≈ 2.64 µM)
MIC (E. faecium GC 4556; GC4556, read-out: MINIMAL INHIBITORY CONCENTRATION MIC, pre-incubated in Water): 4 µg/mL (≈ 5.28 µM)
MIC (E. coli GC 2271; GC2271, read-out: MINIMAL INHIBITORY CONCENTRATION MIC, pre-incubated in Human Serum): > 64 µg/mL
MIC (E. coli GC 2271; GC2271, read-out: MINIMAL INHIBITORY CONCENTRATION MIC, pre-incubated in Mouse Serum): 2 µg/mL (≈ 2.64 µM)
MIC (E. coli GC 2271; GC2271, read-out: MINIMAL INHIBITORY CONCENTRATION MIC, pre-incubated in Water): > 64 µg/mL
MIC (E. coli GC 2232; GC2232, read-out: MINIMAL INHIBITORY CONCENTRATION MIC, pre-incubated in Human Serum): > 64 µg/mL
MIC (E. coli GC 2232; GC2232, read-out: MINIMAL INHIBITORY CONCENTRATION MIC, pre-incubated in Mouse Serum): 2 µg/mL (≈ 2.64 µM)
MIC (E. coli GC 2232; GC2232, read-out: MINIMAL INHIBITORY CONCENTRATION MIC, pre-incubated in Water): > 64 µg/mL
MIC (S. aureus GC 6467; GC6467, read-out: MINIMAL INHIBITORY CONCENTRATION MIC, pre-incubated in Human Serum): 2 µg/mL (≈ 2.64 µM)
MIC (S. aureus GC 6467; GC6467, read-out: MINIMAL INHIBITORY CONCENTRATION MIC, pre-incubated in Mouse Serum): 2 µg/mL (≈ 2.64 µM)
MIC (S. aureus GC 6467; GC6467, read-out: MINIMAL INHIBITORY CONCENTRATION MIC, pre-incubated in Water): 4 µg/mL (≈ 5.28 µM)
SMILES: CCC(C)(C)C(=O)OCOC(=O)N(CC(=O)Nc1cc(N(C)C)c2c(c1O)C(=O)C1=C(O)[C@]3(O)C(=O)C(C(N)=O)=C(O)[C@@H](N(C)C)[C@@H]3C[C@@H]1C2)C(C)(C)C [Example 44, ({[(2-{[(5aR,6aS,7S,10aS)-9-(aminocarbonyl)-4,7-bis(dimethylamino)-1,8,10a,11-tetrahydroxy-10,12-dioxo-5,5a,6,6a,7,10,10a,12-octahydrotetracen-2-yl]amino}-2-oxoethyl)(tert-butyl)amino]carbonyl}oxy)methyl 2,2-dimethylbutanoate]
ED50 (Staph. aureus Smith; Staphylococcus aureus, in Mus musculus, iv, read-out: ED50 SIV (Staph aureus Smith)): 0.75 mg/kg
ED50 (Staph. aureus Smith; Staphylococcus aureus, in Mus musculus, po, read-out: ED50 SOD (Staph aureus Smith)): 4 mg/kg
ED50 (Staph. aureus Smith; Staphylococcus aureus, in Mus musculus, po, read-out: ED50 Staph Smith SOD): 4 mg/kg
ED50 (Staph. aureus Smith; iv, read-out: ED50 Staph Smith SIV): 0.75 mg/kg
